In publication PMC9019041, “Structural insights into the peptide selectivity and activation of human neuromedin U receptors” (Nature Communications, 2022):
Where no end group is shown, it is not given here.

Experiments:
Assay type in all cases: cell-based
Conditions in all cases: mean ± S.E.M., three independent experiments (n=3), SEM, read-out: IP1 accumulation pEC50 ± S.E.M. (converted)
[1] = molecular target: T1, NMUR2 E102A (Homo sapiens, UniProt Q9GZQ4, E102A); experiment: IP-One assay, NMUR2 E102A
T1 construct: expressed in transfected cells; host or cells: AD293 cells
Experimental: (§1) IP-One production was measured using the IP-One HTRF kit (Cisbio)[62]. Briefly, AD293 cells (Agilent) were grown to a density of 400,000–500,000 cells per mL and then infected with separate plasmids at a suitable concentration. The culture was collected by centrifugation 24 h after incubation at 37 °C in 5% CO2 with a Stimulation Buffer. The cell suspension was then dispensed in a white 384-well plate at a volume of 7 μl per well before adding 7 μl of ligands. The mixture was incubated for 1 h at 37 °C. IP-One-d2 and anti-IP-One Cryptate dissolved in Lysis Buffer (3 μl each) were subsequently added and incubated for 15-30 min at room temperature before measurement. Intracellular IP-One measurement was carried with the IP-One HTRF kit and EnVision multi-plate reader (PerkinElmer) according to the manufacturer’s instructions. Data were normalized to the baseline response of the ligand.
(§2) The significance was determined with two-side, one-way ANOVA with Tukey’s test, and ^*P < 0.05 was considered statistically significant.

[2] = molecular target: T2, NMUR2 E105A (Homo sapiens, UniProt Q9GZQ4, E105A); experiment: IP-One assay, NMUR2 E105A
T2 construct: expressed in transfected cells; host or cells: AD293 cells
Experimental: as §1, §2

[3] = molecular target: T3, NMUR2 M106A (Homo sapiens, UniProt Q9GZQ4, M106A); experiment: IP-One assay, NMUR2 M106A
T3 construct: expressed in transfected cells; host or cells: AD293 cells
Experimental: as §1, §2

[4] = molecular target: T4, NMUR2 N109A (Homo sapiens, UniProt Q9GZQ4, N109A); experiment: IP-One assay, NMUR2 N109A
T4 construct: expressed in transfected cells; host or cells: AD293 cells
Experimental: as §1, §2

[5] = molecular target: T5, NMUR2 Y110A (Homo sapiens, UniProt Q9GZQ4, Y110A); experiment: IP-One assay, NMUR2 Y110A
T5 construct: expressed in transfected cells; host or cells: AD293 cells
Experimental: as §1, §2

[6] = molecular target: T6, NMUR2 K122A (Homo sapiens, UniProt Q9GZQ4, K122A); experiment: IP-One assay, NMUR2 K122A
T6 construct: expressed in transfected cells; host or cells: AD293 cells
Experimental: as §1, §2

[7] = molecular target: T7, NMUR2 T123A (Homo sapiens, UniProt Q9GZQ4, T123A); experiment: IP-One assay, NMUR2 T123A
T7 construct: expressed in transfected cells; host or cells: AD293 cells
Experimental: as §1, §2

[8] = molecular target: T8, NMUR2 F126A (Homo sapiens, UniProt Q9GZQ4, F126A); experiment: IP-One assay, NMUR2 F126A
T8 construct: expressed in transfected cells; host or cells: AD293 cells
Experimental: as §1, §2

[9] = molecular target: T9, NMUR2 E127A (Homo sapiens, UniProt Q9GZQ4, E127A); experiment: IP-One assay, NMUR2 E127A
T9 construct: expressed in transfected cells; host or cells: AD293 cells
Experimental: as §1, §2

[10] = molecular target: T10, NMUR2 N181A (Homo sapiens, UniProt Q9GZQ4, N181A); experiment: IP-One assay, NMUR2 N181A
T10 construct: expressed in transfected cells; host or cells: AD293 cells
Experimental: as §1, §2

[11] = molecular target: T11, NMUR2 T203A (Homo sapiens, UniProt Q9GZQ4, T203A); experiment: IP-One assay, NMUR2 T203A
T11 construct: expressed in transfected cells; host or cells: AD293 cells
Experimental: as §1, §2

[12] = molecular target: T12, NMUR2 T205A (Homo sapiens, UniProt Q9GZQ4, T205A); experiment: IP-One assay, NMUR2 T205A
T12 construct: expressed in transfected cells; host or cells: AD293 cells
Experimental: as §1, §2

[13] = molecular target: T13, NMUR2 Y213A (Homo sapiens, UniProt Q9GZQ4, Y213A); experiment: IP-One assay, NMUR2 Y213A
T13 construct: expressed in transfected cells; host or cells: AD293 cells
Experimental: as §1, §2

[14] = molecular target: T14, NMUR2 F284A (Homo sapiens, UniProt Q9GZQ4, F284A); experiment: IP-One assay, NMUR2 F284A
T14 construct: expressed in transfected cells; host or cells: AD293 cells
Experimental: as §1, §2

[15] = molecular target: T15, NMUR2 D287A (Homo sapiens, UniProt Q9GZQ4, D287A); experiment: IP-One assay, NMUR2 D287A
T15 construct: expressed in transfected cells; host or cells: AD293 cells
Experimental: as §1, §2

[16] = molecular target: T16, NMUR2 R288A (Homo sapiens, UniProt Q9GZQ4, R288A); experiment: IP-One assay, NMUR2 R288A
T16 construct: expressed in transfected cells; host or cells: AD293 cells
Experimental: as §1, §2

[17] = molecular target: T17, NMUR2 F291A (Homo sapiens, UniProt Q9GZQ4, F291A); experiment: IP-One assay, NMUR2 F291A
T17 construct: expressed in transfected cells; host or cells: AD293 cells
Experimental: as §1, §2

[18] = molecular target: T18, NMUR2 W297A (Homo sapiens, UniProt Q9GZQ4, W297A); experiment: IP-One assay, NMUR2 W297A
T18 construct: expressed in transfected cells; host or cells: AD293 cells
Experimental: as §1, §2

[19] = molecular target: T19, NMUR2 A302G (Homo sapiens, UniProt Q9GZQ4, A302G); experiment: IP-One assay, NMUR2 A302G
T19 construct: expressed in transfected cells; host or cells: AD293 cells
Experimental: as §1, §2

[20] = molecular target: T20, NMUR2 F305A (Homo sapiens, UniProt Q9GZQ4, F305A); experiment: IP-One assay, NMUR2 F305A
T20 construct: expressed in transfected cells; host or cells: AD293 cells
Experimental: as §1, §2

[21] = molecular target: T21, NMUR2 N306A (Homo sapiens, UniProt Q9GZQ4, N306A); experiment: IP-One assay, NMUR2 N306A
T21 construct: expressed in transfected cells; host or cells: AD293 cells
Experimental: as §1, §2

[22] = molecular target: T22, NMUR2 H309A (Homo sapiens, UniProt Q9GZQ4, H309A); experiment: IP-One assay, NMUR2 H309A
T22 construct: expressed in transfected cells; host or cells: AD293 cells
Experimental: as §1, §2

[23] = molecular target: T23, NMUR2 V310A (Homo sapiens, UniProt Q9GZQ4, V310A); experiment: IP-One assay, NMUR2 V310A
T23 construct: expressed in transfected cells; host or cells: AD293 cells
Experimental: as §1, §2

[24] = molecular target: T24, NMUR2 S312A (Homo sapiens, UniProt Q9GZQ4, S312A); experiment: IP-One assay, NMUR2 S312A
T24 construct: expressed in transfected cells; host or cells: AD293 cells
Experimental: as §1, §2

[25] = molecular target: T25, NMUR2 F316A (Homo sapiens, UniProt Q9GZQ4, F316A); experiment: IP-One assay, NMUR2 F316A
T25 construct: expressed in transfected cells; host or cells: AD293 cells (Agilent)
Experimental: as §1, §2

[26] = molecular target: T26, NMUR2 Y317A (Homo sapiens, UniProt Q9GZQ4, Y317A); experiment: IP-One assay, NMUR2 Y317A
T26 construct: expressed in transfected cells; host or cells: AD293 cells (Agilent)
Experimental: as §1, §2

T25 sequence (Q9GZQ4 whole entry F316A): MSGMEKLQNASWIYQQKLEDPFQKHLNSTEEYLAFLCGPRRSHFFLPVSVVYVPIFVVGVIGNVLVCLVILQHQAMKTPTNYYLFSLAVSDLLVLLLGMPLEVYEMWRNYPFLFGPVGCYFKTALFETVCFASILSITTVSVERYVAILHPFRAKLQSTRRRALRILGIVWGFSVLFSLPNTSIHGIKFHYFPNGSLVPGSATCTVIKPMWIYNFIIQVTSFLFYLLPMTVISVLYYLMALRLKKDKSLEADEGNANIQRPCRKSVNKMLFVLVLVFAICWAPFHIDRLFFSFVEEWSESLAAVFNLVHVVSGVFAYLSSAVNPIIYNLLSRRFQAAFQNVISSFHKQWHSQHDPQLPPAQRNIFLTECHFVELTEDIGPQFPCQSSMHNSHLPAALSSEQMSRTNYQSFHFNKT
T22 sequence (Q9GZQ4 whole entry H309A): as the sequence (Q9GZQ4 whole entry F316A) above, with H309A, A316F counted along it
T3 sequence (Q9GZQ4 whole entry M106A): as the sequence (Q9GZQ4 whole entry F316A) above, with M106A, A316F counted along it
T8 sequence (Q9GZQ4 whole entry F126A): as the sequence (Q9GZQ4 whole entry F316A) above, with F126A, A316F counted along it
T13 sequence (Q9GZQ4 whole entry Y213A): as the sequence (Q9GZQ4 whole entry F316A) above, with Y213A, A316F counted along it
T2 sequence (Q9GZQ4 whole entry E105A): as the sequence (Q9GZQ4 whole entry F316A) above, with E105A, A316F counted along it
T15 sequence (Q9GZQ4 whole entry D287A): as the sequence (Q9GZQ4 whole entry F316A) above, with D287A, A316F counted along it
T12 sequence (Q9GZQ4 whole entry T205A): as the sequence (Q9GZQ4 whole entry F316A) above, with T205A, A316F counted along it
T7 sequence (Q9GZQ4 whole entry T123A): as the sequence (Q9GZQ4 whole entry F316A) above, with T123A, A316F counted along it
T6 sequence (Q9GZQ4 whole entry K122A): as the sequence (Q9GZQ4 whole entry F316A) above, with K122A, A316F counted along it
T17 sequence (Q9GZQ4 whole entry F291A): as the sequence (Q9GZQ4 whole entry F316A) above, with F291A, A316F counted along it
T14 sequence (Q9GZQ4 whole entry F284A): as the sequence (Q9GZQ4 whole entry F316A) above, with F284A, A316F counted along it
T23 sequence (Q9GZQ4 whole entry V310A): as the sequence (Q9GZQ4 whole entry F316A) above, with V310A, A316F counted along it
T21 sequence (Q9GZQ4 whole entry N306A): as the sequence (Q9GZQ4 whole entry F316A) above, with N306A, A316F counted along it
T1 sequence (Q9GZQ4 whole entry E102A): as the sequence (Q9GZQ4 whole entry F316A) above, with E102A, A316F counted along it
T4 sequence (Q9GZQ4 whole entry N109A): as the sequence (Q9GZQ4 whole entry F316A) above, with N109A, A316F counted along it
T20 sequence (Q9GZQ4 whole entry F305A): as the sequence (Q9GZQ4 whole entry F316A) above, with F305A, A316F counted along it
T11 sequence (Q9GZQ4 whole entry T203A): as the sequence (Q9GZQ4 whole entry F316A) above, with T203A, A316F counted along it
T26 sequence (Q9GZQ4 whole entry Y317A): as the sequence (Q9GZQ4 whole entry F316A) above, with A316F, Y317A counted along it
T9 sequence (Q9GZQ4 whole entry E127A): as the sequence (Q9GZQ4 whole entry F316A) above, with E127A, A316F counted along it
T19 sequence (Q9GZQ4 whole entry A302G): as the sequence (Q9GZQ4 whole entry F316A) above, with A302G, A316F counted along it
T10 sequence (Q9GZQ4 whole entry N181A): as the sequence (Q9GZQ4 whole entry F316A) above, with N181A, A316F counted along it
T24 sequence (Q9GZQ4 whole entry S312A): as the sequence (Q9GZQ4 whole entry F316A) above, with S312A, A316F counted along it
T5 sequence (Q9GZQ4 whole entry Y110A): as the sequence (Q9GZQ4 whole entry F316A) above, with Y110A, A316F counted along it
T18 sequence (Q9GZQ4 whole entry W297A): as the sequence (Q9GZQ4 whole entry F316A) above, with W297A, A316F counted along it
T16 sequence (Q9GZQ4 whole entry R288A): as the sequence (Q9GZQ4 whole entry F316A) above, with R288A, A316F counted along it

## FRVDEEFQSPFASQSRGYFLFRPRN-NH2 [NMU, neuromedin U]
[1]
  EC50: 30.9 nM
[2]
  EC50: 11.7 nM
[3]
  EC50: 19.5 nM
[4]
  EC50: 7.24 nM
[5]
  EC50: 186 nM
[6]
  EC50: 61.7 nM
[7]
  EC50: 9.77 nM
[8]
  EC50: 2 nM
[9]
  EC50: 43.7 nM
[10]
  EC50: 2.75 nM
[11]
  EC50: 0.891 nM
[12]
  EC50: 1.95 nM
[13]
  EC50: 7.24 nM
[14]
  EC50: 7.08 nM
[15]
  EC50: 1.15 nM
[16]
  EC50: 33.1 nM
[17]
  EC50: 4.68 nM
[18]
  EC50: 66.1 nM
[19]
  EC50: 70.8 nM
[20]
  EC50: 12.3 nM
[21]
  EC50: 10 nM
[22]
  EC50: 0.646 nM
[23]
  EC50: 0.631 nM
[24]
  EC50: 2.45 nM
[25]
  EC50: 8.71 nM
[26]
  EC50: 2.63 nM
